In article PMC11172478, “1,3,5-Triazine as Branching Connector for the Construction of Novel Antimicrobial Peptide Dendrimers: Synthesis and Biological Characterization” (International Journal of Molecular Sciences, 2024):
Converted amounts (≈) assume the structure as drawn. Like-named read-outs stand apart in the source and are kept apart here. Starred links: 1 amine or outer side, 2 acyl side, 3 side chain; linkers in the order of their positions; H or OH if unused. Positions of bridges follow the written chain, without caps; N, C: chain ends. Non-standard residues stand in square brackets, D forms with d. Residues, ends and D or L forms follow the SMILES beside them. Chains are numbered I, II in the order given. *: point of attachment. X3 = CC(=O)NCCNc1nc(NCCNC(C)=O)nc(N([C@@H](CC(C)C)C(=O)[*:2])[*:1])n1; X4 = CC(=O)NCCNc1nc(NCCNC(C)=O)nc(Oc2ccc(C(=O)*)cc2)n1; X2 = CC[C@H](C)CCCCC(=O)*; Dab = NCC[C@H](N)C(=O)O

Assays:
Type in all cases: cell-based
E. coli ATCC 25922 = conditions: ATCC 25922, 24 h
Description: (§1) The antimicrobial activity of the dendrimers was evaluated against E. coli ATCC 25922, P. aeruginosa ATCC 27853 and S. aureus ATCC 29213 strains. The MIC values were determined by the broth microdilution method. Briefly, the different strains were grown in Muller Hinton broth cation adjusted (MHBCA) medium overnight at 37 °C with shaking at 200 rpm. The bacterial cultures were then adjusted to OD625nm of 0.08–0.1, and 5 μL of each diluted suspension was added to 96-well plates previously filled with MHBCA and serially diluted peptides. Plates were incubated for 24 h at 37 °C. Finally, the MIC was determined macroscopically, based on the visual turbidity of the wells.

P. aeruginosa ATCC 27853 = conditions: ATCC 27853, 24 h
Description: as §1

S. aureus ATCC 29213 = conditions: ATCC 29213, 24 h
Description: as §1

E. coli 7987 = assay: microbe, parasite or virus in culture; conditions: Escherichia coli; MDR isolate E. coli 7987; read-out: MIC
Description: (§2) E. coli ATCC 25922, P. aeruginosa ATCC 27853, S. aureus ATCC 29213, P. aeruginosa 666 SJD (ciprofloxacin-resistant), P. aeruginosa P12, P13, P15, P16 and P17 (MDR isolates) and E. coli 7987, 5545, 8248, 13974, 7259 and 208691 (MDR isolates) from our own collection were included in the present study.
as §1

E. coli 8248 = assay: microbe, parasite or virus in culture; conditions: Escherichia coli; MDR isolate E. coli 8248; read-out: MIC
Description: as §2, §1

E. coli 13974 = assay: microbe, parasite or virus in culture; conditions: Escherichia coli; MDR isolate E. coli 13974; read-out: MIC
Description: as §2, §1

E. coli 7259 = assay: microbe, parasite or virus in culture; conditions: Escherichia coli; MDR isolate E. coli 7259; read-out: MIC
Description: as §2, §1

P. aeruginosa P16 = assay: microbe, parasite or virus in culture; conditions: MDR isolate P. aeruginosa P16
Description: as §2, §1

P. aeruginosa P15 = assay: microbe, parasite or virus in culture
Description: as §2, §1

P. aeruginosa P12 = assay: microbe, parasite or virus in culture; conditions: MDR isolate P. aeruginosa P12
Description: as §2, §1

P. aeruginosa P17 = assay: microbe, parasite or virus in culture
Description: as §2, §1

P. aeruginosa P13 = assay: microbe, parasite or virus in culture
Description: as §2, §1

E. coli 208691 = assay: microbe, parasite or virus in culture
Description: as §2, §1

E. coli 5545 = assay: microbe, parasite or virus in culture; conditions: Escherichia coli; MDR isolate E. coli 5545; read-out: MIC
Description: as §2, §1

[1] = Pseudomonas aeruginosa, read-out: MIC

SMILES | MIC E. coli ATCC 25922 (E. coli ATCC 25922) | MIC P. aeruginosa ATCC 27853 (P. aeruginosa ATCC 27853) | MIC S. aureus ATCC 29213 (S. aureus ATCC 29213) | other results
CC(C)C[C@H](NC(=O)[C@H](CCCCN)NC(=O)[C@H](CC(C)C)NC(=O)[C@H](CCCCN)NC(=O)[C@@H](N)CC(C)C)C(=O)N[C@@H](CCCCN)C(N)=O [A, H-Leu-Lys-Leu-Lys-Leu-Lys-NH2] (H-LKLKLK-NH2) | >64 µg/mL | >64 µg/mL | >64 µg/mL | 
CC(=O)NCCNc1nc(NCCNC(C)=O)nc(Oc2ccc(C(=O)NCC(=O)N[C@@H](Cc3ccccc3)C(=O)N[C@@H](CC(C)C)C(N)=O)cc2)n1 [C, (Ac-EDA)2-TA-PHBA-GFL-NH2] | >64 µg/mL | >64 µg/mL | >64 µg/mL | 
CC(C)C[C@H](NC(=O)[C@H](CCCCN)NC(=O)[C@H](CC(C)C)NC(=O)[C@H](CCCCN)NC(=O)[C@H](CC(C)C)NC(=O)[C@H](CCCCN)NC(=O)[C@H](CC(C)C)NC(=O)[C@H](CCCCN)NC(=O)[C@H](CC(C)C)NC(=O)[C@H](CCCCN)NC(=O)[C@H](CC(C)C)NC(=O)[C@H](CCCCN)NC(=O)[C@H](CC(C)C)NC(=O)[C@H](CCCCN)NC(=O)[C@H](CC(C)C)NC(=O)[C@H](CCCCN)NC(=O)[C@@H](N)CC(C)C)C(=O)N[C@@H](CCCCN)C(N)=O [G, H-(Leu-Lys)9-NH2] (H-LKLKLKLKLKLKLKLKLK-NH2) | >64 µg/mL | >64 µg/mL | >64 µg/mL | 
CC(C)C[C@H](NC(=O)[C@H](Cc1ccccc1)NC(=O)CNC(=O)c1ccc(Oc2nc(NCCNC(=O)[C@H](CCCCN)NC(=O)[C@H](CC(C)C)NC(=O)[C@H](CCCCN)NC(=O)[C@H](CC(C)C)NC(=O)[C@H](CCCCN)NC(=O)[C@@H](N)CC(C)C)nc(NCCNC(=O)[C@H](CCCCN)NC(=O)[C@H](CC(C)C)NC(=O)[C@H](CCCCN)NC(=O)[C@H](CC(C)C)NC(=O)[C@H](CCCCN)NC(=O)[C@@H](N)CC(C)C)n2)cc1)C(N)=O [B, H-[(LK)3-EDA]2-TA-PHBA-GFL-NH2] | 64 µg/mL (≈ 30.5 µM) | 32 µg/mL (≈ 15.3 µM) | >64 µg/mL | 
O=C(O)c1cn(C2CC2)c2cc(N3CCNCC3)c(F)cc2c1=O [Ciprofloxacin, reference compound] |  |  |  | MIC (E. coli 7987): 32 µg/mL (≈ 96.6 µM); MIC (E. coli 8248): 32 µg/mL (≈ 96.6 µM); MIC (E. coli 13974): 32 µg/mL (≈ 96.6 µM); MIC (E. coli 7259): 32 µg/mL (≈ 96.6 µM); MIC (P. aeruginosa P16; [1]): 64 µg/mL (≈ 193 µM); MIC (P. aeruginosa P15; Pseudomonas aeruginosa, P15): 256 µg/mL (≈ 773 µM); MIC (P. aeruginosa P12; [1]): 64 µg/mL (≈ 193 µM); MIC (P. aeruginosa P17; Pseudomonas aeruginosa, P17): 256 µg/mL (≈ 773 µM); MIC (P. aeruginosa P13; Pseudomonas aeruginosa, P13): 128 µg/mL (≈ 386 µM); MIC (E. coli 208691; Escherichia coli, 208691): 256 µg/mL (≈ 773 µM); MIC (E. coli 5545): 64 µg/mL (≈ 193 µM)
CC(=O)NCCNc1nc(NCCNC(C)=O)nc(N[C@@H](CC(C)C)C(=O)N[C@@H](CCCCN)C(=O)N[C@@H](CC(C)C)C(=O)N[C@@H](CCCCN)C(=O)N[C@@H](CC(C)C)C(=O)N[C@@H](CCCCN)C(N)=O)n1 [E, (Ac-EDA)2-TA-(LK)3-NH2] (H-[X3]KLKLK-NH2) | >64 µg/mL | >64 µg/mL | >64 µg/mL | 
CC[C@H](C)CCCCC(=O)N[C@@H](CCN)C(=O)N[C@H](C(=O)N[C@@H](CCN)C(=O)N[C@H]1CCNC(=O)[C@H]([C@@H](C)O)NC(=O)[C@H](CCN)NC(=O)[C@H](CCN)NC(=O)[C@H](CC(C)C)NC(=O)[C@@H](CC(C)C)NC(=O)[C@H](CCN)NC1=O)[C@@H](C)O [Colistin, reference compound] (X2-[Dab]T[Dab][Dab][Dab][dL]L[Dab][Dab]T; lactam 4-C (inferred); N-terminus assumed) |  |  |  | MIC (P. aeruginosa P16): 16 µg/mL (≈ 13.7 µM); MIC (P. aeruginosa P15; MDR isolate P. aeruginosa P15): >128 µg/mL; MIC (P. aeruginosa P12): 64 µg/mL (≈ 54.7 µM); MIC (P. aeruginosa P17; MDR isolate P. aeruginosa P17): >8 µg/mL; MIC (P. aeruginosa P13; MDR isolate P. aeruginosa P13): 32 µg/mL (≈ 27.4 µM); MIC (E. coli 208691; MDR isolate E. coli 208691): 0.5 µg/mL (≈ 0.428 µM)
CC(=O)NCCNc1nc(NCCNC(C)=O)nc(Oc2ccc(C(=O)N[C@@H](CC(C)C)C(=O)N[C@@H](CCCCN)C(=O)N[C@@H](CC(C)C)C(=O)N[C@@H](CCCCN)C(=O)N[C@@H](CC(C)C)C(=O)N[C@@H](CCCCN)C(N)=O)cc2)n1 [D, (Ac-EDA)2-TA-PHBA-(LK)3-NH2] (X4-LKLKLK-NH2) | >64 µg/mL | >64 µg/mL | >64 µg/mL | 
CC(C)C[C@H](NC(=O)[C@H](CCCCN)NC(=O)[C@H](CC(C)C)NC(=O)[C@H](CCCCN)NC(=O)[C@H](CC(C)C)NC(=O)[C@H](CCCCNC(=O)[C@H](CCCCN)NC(=O)[C@H](CC(C)C)NC(=O)[C@H](CCCCN)NC(=O)[C@H](CC(C)C)NC(=O)[C@H](CCCCN)NC(=O)[C@@H](N)CC(C)C)NC(=O)[C@H](CCCCN)NC(=O)[C@H](CC(C)C)NC(=O)[C@H](CCCCN)NC(=O)[C@H](CC(C)C)NC(=O)[C@H](CCCCN)NC(=O)[C@@H](N)CC(C)C)C(=O)N[C@@H](CCCCN)C(N)=O [F, H-[(LK)3]2-K-(LK)3-NH2] (I: H-LKLKLKKLKLKLK-NH2 / II: H-LKLKLK; amide I:7-II:C) | 32 µg/mL (≈ 13.8 µM) | >64 µg/mL | 64 µg/mL (≈ 27.6 µM) | 
